Values of other authors as cited in patent US20130137759A1, “COMPOSITIONS AND METHODS FOR TREATING PARASITIC DISEASE” (Worcester Polytechnic Institute, priority 2010, published 2013).
Each block holds one molecule with its values, some of them ahead of it.

Key:
[1] = rats, intragastric in 1:9 dimethyl-acetamide-oil, 10 mg kg^−1 (2,320 μg per rat)

- half-life (healthy male volunteers): 1 to 3 h
- tmax (humans, pure AN (Rath et al. 2004)): 2.3 h
Compound: C[C@@H]1CC[C@H]2[C@@H](C)C(=O)O[C@@H]3O[C@@]4(C)CC[C@@H]1[C@]32OO4 [artemisinin]

Compound: COc1cc2oc(-c3ccc(O)c(O)c3)c(OC)c(=O)c2c(O)c1OC [chrysosplenol-D]
- effect on AN activity against P. falciparum (P. falciparum; combined with pure AN): significant enhancement of AN activity
- direct effect on P. falciparum (P. falciparum; flavonoid alone): no direct effect

- Plasma/serum concentration Artemisinin Cmax [1]: 800 ng/mL
Compound: C[C@H]1[C@@H](O)O[C@@H]2O[C@@]3(C)CC[C@H]4[C@H](C)CC[C@@H]1[C@@]24OO3 [dihydroartemisinin]
